Data on 1 substance can be found in US20130202545A1, “Stablised Polyphenol Derivatives, Process for Their Manufacture, and Uses Thereof” (BERKEM S.A., priority 2010, published 2013).

This assay relates to explants of human skin. As to the kind of experiment: Anti-lipoperoxidant activity: MDA level in UV-irradiated human skin explants. It counts as cell-based. From the text:
Oxygenated free radicals are produced in large quantities on the skin as a result of UV irradiation. These free radical species cause various forms of degradation to cellular components, and in particular, to membrane lipids. The latter are transformed into various hydroperoxide derivatives, such as for example malonyldialdehyde (MDA), and 4-hydrononenal (4-HNE). The determination of the amount of MDA in skin tissues is thus a good indicator of the production of oxygenated free radicals and peroxidation of membrane lipids. A comparison of the levels of MDA between treated and non-treated subjects therefore indicates whether the product applied has anti-lipoperoxidant activity. The model used for the experiments is one of human skin explants which are maintained in survival mode at 37° C., a humid atmosphere and 5% CO2. The skin explants are divided into three positive control batch treated with vitamin E (2 mg per explant) The products to be tested are dissolved at a concentration of 2% Vaseline oil. This solution is applied topically to the skin explants at a rate of one 30 micro-litre application per explant per day for 5 days. […] Levels of MDA (expressed in pmoles of MDA/ml of medium) in the explants are measured for both the treated and untreated batches. […] Antiradical activity was determined using the same method described in example 17. […]

As for Vitamin E, the “% Reduction in MDA” value reads like this: (Example 21, etherified (silyl ether) OPC, same method as the earlier MDA example) 11%; (products 2% in Vaseline oil, 30 micro-litre per explant per day for 5 days (vitamin E 2 mg per explant), UV A and UV B on day 5, treated vs untreated explants) 11%.
